Source: US10189856B2 (Adverio Pharma GMBH, priority 2010, dated 2019)
Entries after “also recorded” stand apart in the source; their conditions may differ.

Assays:
conscious mice = test: Haemodynamic effects in conscious mice with telemetric implants (Example D); type: in vivo; conditions: result in words, dosages with antifibrotic properties
Protocol: The haemodynamic effects of i.e. example, the compound of formula 3, the compound of formula 4, the compound of formula 6 were analyzed in conscious mice. Telemetric implants (DSI®) were used. Signals were received with RMC1-DSI® receiver plates, compiled and analyzed with PONEMAH® physiology platform software.
The mice received either placebo (tylose), 0.3 mg/kg the compound of formula 27, 1 mg/kg the compound of formula 27, 3 mg/kg the compound of formula 27 (FIG. 1), 1.0 mg/kg the compound of formula 3, 3.0 mg/kg the compound of formula 3, 10.0 mg/kg the compound of formula 3 (FIG. 2A,2B), 1.0 mg/kg the compound of formula 4, 3.0 mg/kg the compound of formula 4, 10.0 mg/kg the compound of formula 4 (FIG. 3A/3B), 0.3 mg/kg the compound of formula 6, 1.0 mg/kg the compound of formula 6, 3.0 mg/kg, 10.0 mg/kg the compound of formula 6 (FIG. 4A/4B). The blood pressure and heart rate was monitored before and after application of placebo or the compounds.

[1] = test system: Bleomycin-induced skin fibrosis; test: Bleomycin-induced skin fibrosis, preventive dose-regimen (Example A); type: in vivo, mice; conditions: for Collagen content / Myofibroblast count / Dermal thickness: Table 2; for Collagen content: bleomycin + vehicle 1.56; for Myofibroblast count: bleomycin + vehicle 3.86; for Dermal thickness: vs vehicle-treated control, bleomycin + vehicle 1.71; for dermal thickness, hydroxyproline content of the skin and the number of dermal myofibroblasts: result in words, bleomycin-induced SSc in mice, preventive dose-regimen
Protocol: Local skin fibrosis was induced in 6-week-old, pathogen-free, female DBA/2 mice (Charles River, Sulzfeld, Germany) by repeated (every other day) subcutaneous injections of bleomycin (0.5 mg/ml in saline) in a defined area of the upper back. Control mice were injected in the same manner with saline only and served as reference. For all groups the injection volume was 100 μl. Concomitant to bleomycin treatment, the mice were treated orally with test drug or vehicle. Mice were treated a) with vehicle b) with 1 mg/kg compound of formula 27, and c) with 3 mg/kg compound of formula 27, twice a day via gavage for 21 days. After this 3 weeks treatment period, the animals were sacrificed and skin samples were obtained for analysis.
The injected skin areas were fixed in 4% formalin and embedded in paraffin. Histological sections were stained with hematoxylin and eosin for the determination of dermal thickness. The dermal thickness was determined by measuring the largest distance between the epidermal-dermal junction and the dermal-subcutaneous fat junction. The measurements were performed by an examiner blinded to the treatment of the mice.
To analyze the collagen content in skin samples, hydroxyproline assay was performed. After digestion of punch biopsies (Ø 3 mm) in 6M HCl for three hours at 120° C., chloramine T (0.06 M) was added and samples were mixed and incubated for 20 min at room temperature. 3.15 M perchloric acid and 20% p-dimethylaminobenzaldehyde were added and samples were incubated for additional 20 min at 60° C. The absorbance was determined at 557 nm.
The expression of α-smooth muscle actin (αSMA) was analyzed in paraffin embedded sections. After deparaffinization, samples were incubated with 3% bovine serum albumin followed by incubation with 3% H2O2. αSMA positive cells in mouse sections were detected by incubation with monoclonal anti-αSMA antibodies (clone 1A4, Sigma-Aldrich, Steinheim, Germany). Irrelevant isotype antibodies in the same concentration were used for control (Santa Cruz Biotechnology, Santa Cruz, Calif., USA). Antibodies labeled with horseradish peroxidase (Dako, Hamburg, Germany) were used as secondary antibodies. The expression of the NICD and αSMA was visualized with DAB peroxidase substrate solution (Sigma-Aldrich). The number of myofibroblasts was counted from 4 different sections of lesional skin for each mouse by an examiner blinded to the treatment of the mice.

[2] = test system: Bleomycin-induced skin fibrosis; test: as above; type: in vivo, mice; conditions: Table 2, 0.3 mg/kg
[3] = test system: established Bleomycin-induced skin fibrosis; test: Established bleomycin-induced skin fibrosis, therapeutic dose-regimen (Example B); type: in vivo; conditions: result in words; bleomycin-induced SSc in mice, therapeutic dose-regimen after established fibrosis
Protocol: Local skin fibrosis was induced in 6-week-old, pathogen-free, female DBA/2 mice (Charles River, Sulzfeld, Germany) by repeated (every other day) subcutaneous injections of bleomycin (0.5 mg/ml in saline) in a defined area of the upper back. Control mice were injected in the same manner with saline only. For all groups the injection volume was 100 μl. The study comprises 4 arms with • a) mice receiving saline injection for 6 weeks (serving as reference) • b) mice receiving Bleomycin injection for 6 weeks • c) mice receiving Bleomycin injection for 6 weeks and additional treatment with the compound of formula 27 (3 mg/kg) twice a day via gavage for the last 3 weeks • d) mice receiving the first 3 weeks bleomycin injections and the second 3 weeks saline injection.
After 6 weeks the animals were sacrificed and skin samples were obtained for analysis.
(§1) Histological analysis, hydroxyproline assay and immunohistochemistry for α-smooth muscle actin were performed as described in the Example 1 section.

Tsk-1 mice = test: Tight skin (Tsk-1) mouse model of systemic sclerosis (Example C); type: in vivo; conditions: result in words; TSK mice with established fibrosis before start of treatment
Protocol: In addition to the mouse model of bleomycin-induced dermal fibrosis, the tight-skin (Tsk-1) mouse model of systemic sclerosis was used to evaluate the anti-fibrotic potential of test drugs. Due to a dominant mutation in fibrillin-1, the phenotype of Tsk-1 is characterized by an increased hypodermal thickness. Genotyping of Tsk-1 mice was performed by PCR with the following primers: mutated fibrillin-1/Tsk-1 forward primer: 5′-[…]-3′, reverse primer: 5′-[…]-3′. Tsk-1 mice were treated daily with test drug or vehicle, respectively, by oral gavage. In addition, a group of corresponding wild type(pa/pa) mice was treated with vehicle. The treatment was started at an age of five weeks. After five weeks of treatment, mice were sacrificed by cervical dislocation and skin samples were obtained for analysis.
as §1

human dermal fibroblasts = test: TGFbeta-induced collagen gene expression and hydroxyproline deposition in human dermal fibroblasts (Example E); type: cell-based; conditions: result in words; human dermal fibroblasts in vitro
Protocol: The effects of the compound of formula 27 and vardenafil as stand alone and in combination were analyzed in vitro in human dermal fibroblasts in vitro.

SMILES: COC(=O)N(C)c1c(N)nc(-c2nn(Cc3ccccc3F)c3ncc(F)cc23)nc1N
- haemodynamic profile (blood pressure and heart rate) (conscious mice): did not or only moderately, change

SMILES: COC(=O)N(C)c1c(N)nc(-c2nn(Cc3ccccc3F)c3ncccc23)nc1N [compound of formula 3, Methyl-4,6-diamino-2-[1-(2-fluorobenzyl)-1H-pyrazolo[3,4-b]pyridine-3-yl]-5-pyrimidinyl-(methyl)carbamate]
- Collagen content ([1]; 1 mg/kg): 1.38 x-fold change
- Myofibroblast count ([1]; 1 mg/kg): 2.55 x-fold change
- Dermal thickness ([1]; 1 mg/kg): 1.38 x-fold change
- dermal thickness, hydroxyproline content of the skin and the number of dermal myofibroblasts [1]: significantly reduced; also recorded: dose dependent and significant effects
- haemodynamic profile (blood pressure and heart rate) (conscious mice): did not or only moderately, change

SMILES: COC(=O)Nc1c(N)nc(-c2nn(Cc3ccccc3F)c3ncccc23)nc1N [compound of formula 4, Methyl-4,6-diamino-2-[1-(2-fluorobenzyl)-1H-pyrazolo[3,4-b]pyridine-3-yl]-5-pyrimidinyl-carbamate]
- haemodynamic profile (blood pressure and heart rate) (conscious mice): did not or only moderately, change

SMILES: COC(=O)Nc1c(N)nc(-c2nn(Cc3ccccc3F)c3ncc(F)cc23)nc1N [compound of formula 6, Methyl-{4,6-diamino-2-[5-fluoro-1-(2-fluorobenzyl)-1H-pyrazolo[3,4-b]pyridine-3-yl]pyrimidine-5-yl}carbamate]
- Collagen content ([1]; 1 mg/kg): 1.28 x-fold change
- Myofibroblast count ([1]; 1 mg/kg): 2.05 x-fold change
- Dermal thickness ([1]; 1 mg/kg): 1.24 x-fold change
- Collagen content ([1]; 3 mg/kg): 1.20 x-fold change
- Myofibroblast count ([1]; 3 mg/kg): 1.49 x-fold change
- Dermal thickness ([1]; 3 mg/kg): 1.19 x-fold change
- dermal thickness, hydroxyproline content of the skin and the number of dermal myofibroblasts [1]: significantly reduced; also recorded: dose dependent and significant effects
- Collagen content ([2]; bleomycin + vehicle 1.56): 1.41 x-fold change
- Myofibroblast count ([2]; bleomycin + vehicle 3.86): 3.13 x-fold change
- Dermal thickness ([2]; vs vehicle-treated control, bleomycin + vehicle 1.71): 1.41 x-fold change

SMILES: Nc1nc(-c2nn(Cc3ccccc3F)c3ncccc23)ncc1C1CC1 [compound of formula 27, 3-(4-Amino-5-cyclopropylpyrimidin-2-yl)-1-(2-fluorobenzyl)-1H-pyrazolo[3,4-b]pyridine]
- dermal thickness, hydroxyproline content of the skin and the number of dermal myofibroblasts [1]: significantly reduced
- dermal thickness, hydroxyproline content of the skin and the number of dermal myofibroblasts [3]: significantly reduced
- dermal thickness, hydroxyproline content of the skin and the number of dermal myofibroblasts (Tsk-1 mice): significantly reduced
- haemodynamic profile (blood pressure and heart rate) (conscious mice): did not or only moderately, change
- TGFbeta-induced Collagen gene expression (human dermal fibroblasts): significantly blocked
- TGFbeta-induced Hydroxyproline (HP) deposition (human dermal fibroblasts): significantly blocked
